Measurements as given in article PMC12238850, “Molecular determinants for recognition of serotonylated chromatin” (Nucleic Acids Research, 2025).
Substitutions are numbered along the chain they refer to. Like-named read-outs stand apart in the source and are kept apart here.

How the values were obtained:
Assay type in all cases: binding
[1] = molecular target: T1, TAF3 P881F (GST-tagged PHD) (Mus musculus, UniProt Q5HZG4, P881F); test: ITC of GST-tagged Taf3-PHD P881F
T1 construct: Mus musculus Taf3-PHD domain (residues 857–924); made in house; host or cells: E. coli BL21(DE3)
T1 sequence (Q5HZG4 857-924 P881F): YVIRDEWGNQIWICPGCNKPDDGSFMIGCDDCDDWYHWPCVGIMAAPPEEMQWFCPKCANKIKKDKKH
Description: (§1) The coding sequences of Mus musculus Taf3-PHD domain (residues 857–924) and Homosapiens PHF2 (1–66), PHF8 (37–102), and BPTF(2) (2865–2921) were cloned into the pGEX2T-derived vector, pRP265NB, for bacterial expression of GST-tagged proteins. Note that the PHD fingers of M. musculus Taf3 and H. sapiens TAF3 differ in a single amino acid. A901 in mouse corresponds to T899 in human. Here, amino acid numbering corresponds to mouse Taf3 isoform 1 with UniProt ID: Q5HZG4, accessible at https://www.uniprot.org/uniprotkb/Q5HZG4/entry. Single or double mutations were introduced by mutagenesis polymerase chain reaction and validated by Sanger sequencing. A single colony of freshly transformed BL21(DE3) Escherichia coli bacteria with the corresponding construct was grown in Luria broth (LB) medium supplemented with 50 μg/ml ampicillin until an OD600 of 0.7. […]
(§2) ITC experiments were performed at 20°C with a MicroCal VP-ITC microcalorimeter (Malvern) by sequential injection of 10 μl at 300 μM histone peptide during 20 s into the sample cell containing 30 or 15 μM of GST-Taf3 (wild type or mutant) or GST-BPTF, GST-PHF2, and GST-PHF8 PHDs in ITC buffer (100 mM NaCl, 20 mM Tris–HCl, pH 7.5). […] ITC data were subsequently analysed and fitted with the one-site binding model in the MicroCal ITC Origin Analysis software 7.0 (Table 1, Figs 3B and 5A, Supplementary Table S3, and Supplementary Fig. S10). […]

[2] = molecular target: T2, BPTF(2) PHD (2865–2921, GST-tagged) (Homo sapiens, UniProt Q12830); test: ITC of GST-tagged BPTF(2) PHD
T2 construct: BPTF(2) (2865–2921); made in house; host or cells: E. coli BL21(DE3)
Description: as §1, §2

[3] = molecular target: T3, TAF3 P881E W894F (GST-tagged PHD) (Mus musculus, UniProt Q5HZG4, P881E/W894F); test: ITC of GST-tagged Taf3-PHD P881E W894F
T3 construct: Mus musculus Taf3-PHD domain (residues 857–924); made in house; host or cells: E. coli BL21(DE3)
T3 sequence (Q5HZG4 857-924 P881E/W894F): T1 sequence (Q5HZG4 857-924 P881F) with F25E, W38F
Description: as §1, §2

[4] = ITC, 20°C, 100 mM NaCl, 20 mM Tris–HCl, pH 7.5, one-site model, ± = standard error of fit, read-out: K D

| Kd [1, 4] | Kd [2, 4] | Kd [3, 4] | Compound | Kd [1] | Kd [2] | Kd [3] |
| --- | --- | --- | --- | --- | --- | --- |
| – | – | – | C[C@H](N)C(=O)N[C@@H](CCCNC(=N)N)C(=O)N[C@H](C(=O)N[C@@H](CCCC[N+](C)(C)C)C(=O)N[C@@H](CCC(=O)NCCc1c[nH]c2ccc(O)cc12)C(=O)N[C@H](C(=O)N[C@@H](C)C(=O)N[C@@H](CCCNC(=N)N)C(=O)N[C@@H](CCCCN)C(=O)N[C@@H](CO)C(=O)N[C@H](C(=O)NCC(N)=O)[C@@H](C)O)[C@@H](C)O)[C@@H](C)O [H3K4me3Q5ser] | 124 ± 7 nM | 1240 ± 50 nM | 111 ± 14 nM |
| 130 ± 4 nM | 1300 ± 49 nM | 123 ± 10 nM | C[C@H](N)C(=O)N[C@@H](CCCNC(=N)N)C(=O)N[C@H](C(=O)N[C@@H](CCCC[N+](C)(C)C)C(=O)N[C@@H](CCC(N)=O)C(=O)N[C@H](C(=O)N[C@@H](C)C(=O)N[C@@H](CCCNC(=N)N)C(=O)N[C@@H](CCCCN)C(=O)N[C@@H](CO)C(=O)N[C@H](C(=O)NCC(N)=O)[C@@H](C)O)[C@@H](C)O)[C@@H](C)O [H3K4me3] | – | – | – |
